Experimental data from patent publication US9340590B2 (priority 2011, dated 2016).
Where two headings read alike, the source gives them in different places. Positions of bridges follow the written chain, without caps; N, C: chain ends. Residues, ends and D or L forms follow the SMILES beside them.

Tests used:
Experiment in all cases: cell-based
hNav1.5 = hNav1.5 (Homo sapiens, UniProt Q14524)
hNav1.7 = hNav1.7 (Homo sapiens, UniProt Q15858); type: cell-based; conditions: IonWorks Quattro, read-out: IWQ Use Nav1.7
hNav1.3 = hNav1.3 (Homo sapiens, UniProt Q9NY46); conditions: IonWorks Quattro, read-out: IWQ Use Nav1.3
[1] = IonWorks Quattro, use-dependent block, hNav1.5, read-out: IWQ Use Nav1.5

hNav1.7, sequence (Q15858 whole entry, looked up): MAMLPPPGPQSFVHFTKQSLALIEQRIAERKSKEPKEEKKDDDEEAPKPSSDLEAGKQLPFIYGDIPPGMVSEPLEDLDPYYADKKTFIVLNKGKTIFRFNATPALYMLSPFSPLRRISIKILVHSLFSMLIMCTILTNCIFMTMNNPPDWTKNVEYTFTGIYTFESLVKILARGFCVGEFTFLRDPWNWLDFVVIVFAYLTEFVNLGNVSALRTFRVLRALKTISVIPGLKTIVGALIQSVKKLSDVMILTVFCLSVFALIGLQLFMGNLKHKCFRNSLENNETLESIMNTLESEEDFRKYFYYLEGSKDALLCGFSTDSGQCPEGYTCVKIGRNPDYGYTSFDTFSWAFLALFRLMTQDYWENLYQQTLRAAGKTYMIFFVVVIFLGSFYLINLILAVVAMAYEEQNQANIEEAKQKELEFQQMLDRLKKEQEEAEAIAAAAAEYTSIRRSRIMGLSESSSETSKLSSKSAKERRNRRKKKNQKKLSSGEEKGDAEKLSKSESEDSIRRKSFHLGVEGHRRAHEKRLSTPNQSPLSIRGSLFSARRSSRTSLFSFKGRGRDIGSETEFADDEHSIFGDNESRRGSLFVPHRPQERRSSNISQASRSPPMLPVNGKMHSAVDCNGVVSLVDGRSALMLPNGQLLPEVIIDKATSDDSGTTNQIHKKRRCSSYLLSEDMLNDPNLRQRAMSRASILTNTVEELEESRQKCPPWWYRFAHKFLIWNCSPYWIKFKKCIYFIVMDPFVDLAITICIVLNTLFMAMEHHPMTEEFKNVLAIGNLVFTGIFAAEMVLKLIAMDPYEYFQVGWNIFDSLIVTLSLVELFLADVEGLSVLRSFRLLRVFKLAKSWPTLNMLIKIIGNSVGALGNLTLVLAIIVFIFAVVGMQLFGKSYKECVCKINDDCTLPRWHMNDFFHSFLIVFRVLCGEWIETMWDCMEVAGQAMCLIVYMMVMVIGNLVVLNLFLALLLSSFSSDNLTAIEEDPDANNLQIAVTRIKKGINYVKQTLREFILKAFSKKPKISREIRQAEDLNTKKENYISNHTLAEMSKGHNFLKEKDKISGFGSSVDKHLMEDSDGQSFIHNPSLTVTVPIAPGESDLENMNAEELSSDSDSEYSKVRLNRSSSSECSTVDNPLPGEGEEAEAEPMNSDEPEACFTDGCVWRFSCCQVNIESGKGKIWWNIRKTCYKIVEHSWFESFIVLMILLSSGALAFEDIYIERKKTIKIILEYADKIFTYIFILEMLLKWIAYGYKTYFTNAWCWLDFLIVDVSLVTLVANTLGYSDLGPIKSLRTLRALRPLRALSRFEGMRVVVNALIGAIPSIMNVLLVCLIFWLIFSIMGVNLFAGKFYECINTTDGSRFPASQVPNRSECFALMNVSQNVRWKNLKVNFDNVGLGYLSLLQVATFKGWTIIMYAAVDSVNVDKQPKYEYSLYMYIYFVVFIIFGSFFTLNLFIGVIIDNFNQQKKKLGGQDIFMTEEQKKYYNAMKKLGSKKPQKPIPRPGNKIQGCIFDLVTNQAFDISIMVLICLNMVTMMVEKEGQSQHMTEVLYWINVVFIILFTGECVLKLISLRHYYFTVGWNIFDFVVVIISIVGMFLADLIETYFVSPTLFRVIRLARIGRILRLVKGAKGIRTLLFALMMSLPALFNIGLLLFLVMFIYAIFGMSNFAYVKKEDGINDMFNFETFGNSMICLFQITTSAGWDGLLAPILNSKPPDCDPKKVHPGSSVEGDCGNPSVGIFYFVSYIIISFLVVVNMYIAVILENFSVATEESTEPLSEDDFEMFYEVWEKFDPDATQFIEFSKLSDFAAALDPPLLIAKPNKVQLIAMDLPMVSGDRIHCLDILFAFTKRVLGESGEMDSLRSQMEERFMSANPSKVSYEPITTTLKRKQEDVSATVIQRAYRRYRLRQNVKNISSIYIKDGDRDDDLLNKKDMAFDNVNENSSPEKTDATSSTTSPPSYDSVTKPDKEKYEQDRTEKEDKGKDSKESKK
hNav1.5, sequence (Q14524 whole entry, looked up): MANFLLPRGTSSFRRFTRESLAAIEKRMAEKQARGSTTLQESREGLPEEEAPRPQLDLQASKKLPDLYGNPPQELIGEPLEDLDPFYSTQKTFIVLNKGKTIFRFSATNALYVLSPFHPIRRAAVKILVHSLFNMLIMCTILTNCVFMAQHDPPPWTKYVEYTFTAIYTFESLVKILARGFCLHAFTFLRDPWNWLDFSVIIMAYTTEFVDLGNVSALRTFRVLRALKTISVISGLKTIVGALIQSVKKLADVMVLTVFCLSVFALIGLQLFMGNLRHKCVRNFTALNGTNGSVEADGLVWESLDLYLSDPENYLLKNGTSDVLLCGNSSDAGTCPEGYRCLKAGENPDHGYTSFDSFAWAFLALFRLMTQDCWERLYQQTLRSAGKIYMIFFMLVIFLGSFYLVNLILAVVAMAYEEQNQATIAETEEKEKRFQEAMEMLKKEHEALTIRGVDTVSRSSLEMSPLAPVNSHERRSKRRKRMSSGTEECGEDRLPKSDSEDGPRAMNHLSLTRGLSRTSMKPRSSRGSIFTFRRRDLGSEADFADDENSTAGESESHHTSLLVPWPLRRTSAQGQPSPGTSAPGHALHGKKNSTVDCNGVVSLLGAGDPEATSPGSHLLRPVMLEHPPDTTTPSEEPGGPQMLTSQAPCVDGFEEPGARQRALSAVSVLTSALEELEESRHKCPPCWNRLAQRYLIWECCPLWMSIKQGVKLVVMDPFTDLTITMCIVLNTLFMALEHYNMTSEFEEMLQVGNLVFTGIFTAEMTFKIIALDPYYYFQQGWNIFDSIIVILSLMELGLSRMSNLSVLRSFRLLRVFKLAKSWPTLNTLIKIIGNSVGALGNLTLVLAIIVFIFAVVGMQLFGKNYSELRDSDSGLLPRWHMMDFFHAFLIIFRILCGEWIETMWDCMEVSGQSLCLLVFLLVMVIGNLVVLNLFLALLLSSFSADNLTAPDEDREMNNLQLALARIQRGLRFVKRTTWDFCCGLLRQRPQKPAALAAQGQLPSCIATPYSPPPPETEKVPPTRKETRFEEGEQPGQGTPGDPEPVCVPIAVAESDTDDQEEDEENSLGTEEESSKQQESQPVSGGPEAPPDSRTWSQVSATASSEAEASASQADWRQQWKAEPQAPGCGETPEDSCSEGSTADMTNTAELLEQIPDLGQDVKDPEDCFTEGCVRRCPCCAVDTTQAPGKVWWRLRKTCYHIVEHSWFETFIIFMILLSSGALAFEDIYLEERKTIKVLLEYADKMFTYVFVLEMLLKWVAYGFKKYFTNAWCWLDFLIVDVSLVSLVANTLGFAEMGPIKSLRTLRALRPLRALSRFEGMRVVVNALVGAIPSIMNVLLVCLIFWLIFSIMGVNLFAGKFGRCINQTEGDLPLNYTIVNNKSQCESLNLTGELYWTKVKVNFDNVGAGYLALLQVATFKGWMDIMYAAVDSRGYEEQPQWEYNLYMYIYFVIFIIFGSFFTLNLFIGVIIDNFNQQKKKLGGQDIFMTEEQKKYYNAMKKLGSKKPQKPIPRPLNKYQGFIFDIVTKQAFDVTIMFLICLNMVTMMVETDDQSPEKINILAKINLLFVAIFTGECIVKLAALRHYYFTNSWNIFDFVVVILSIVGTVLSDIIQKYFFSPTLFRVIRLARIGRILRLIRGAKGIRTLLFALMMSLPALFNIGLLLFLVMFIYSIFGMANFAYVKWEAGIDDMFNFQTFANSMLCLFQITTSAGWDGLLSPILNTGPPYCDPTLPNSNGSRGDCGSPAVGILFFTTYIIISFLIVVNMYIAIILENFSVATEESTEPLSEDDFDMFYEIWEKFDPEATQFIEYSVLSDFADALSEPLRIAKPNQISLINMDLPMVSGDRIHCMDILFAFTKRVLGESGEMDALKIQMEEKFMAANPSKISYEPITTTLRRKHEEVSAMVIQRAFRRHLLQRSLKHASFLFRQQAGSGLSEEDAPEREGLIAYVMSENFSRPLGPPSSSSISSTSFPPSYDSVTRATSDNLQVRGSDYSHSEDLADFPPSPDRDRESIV

**Q.** CC[C@H](C)[C@H](NC(=O)[C@H](CCCCN)NC(=O)[C@@H]1CSSC[C@@H]2NC(=O)[C@H](CCCCN)NC(=O)[C@H](CC(=O)O)NC(=O)[C@H](CC(N)=O)NC(=O)[C@H](CC(=O)O)NC(=O)[C@@H]3CCCN3C(=O)[C@H]([C@@H](C)CC)NC(=O)[C@@H]3CSSC[C@H](NC(=O)[C@H](C(C)C)NC(=O)[C@H](CC(C)C)NC(=O)[C@H](CC(N)=O)NC(=O)[C@@H]4CCCN4C(=O)[C@H](CCCNC(=N)N)NC(=O)[C@H](CSSC[C@H](NC(=O)[C@@H](N)CC(=O)O)C(=O)N[C@@H](CC(C)C)C(=O)NCC(=O)N[C@@H](Cc4ccccc4)C(=O)N[C@@H](CCSC)C(=O)N[C@@H](CCCNC(=N)N)C(=O)N[C@@H](CCCCN)C(=O)N3)NC2=O)C(=O)N[C@@H](CO)C(=O)N[C@@H](CCCNC(=N)N)C(=O)N[C@@H]([C@@H](C)O)C(=O)N[C@@H](Cc2c[nH]cn2)C(=O)N[C@@H](CCCCN)C(=O)N[C@@H](Cc2c[nH]c3ccccc23)C(=O)N1)C(=O)N[C@H](C(=O)N[C@@H](Cc1ccccc1)C(N)=O)C(C)C [compound 367] (H-DCLGFMRKCIPDNDKCCRPNLVCSRTHKWCKIVF-NH2; disulfide 2-17, 9-23, 16-30) was tested. Which IC50 (hNav1.5; Table 25, IonWorks Quattro, use, […], read-out: IWQ Use Nav1.5) did it give?
**A.** 8710 nM

**Q.** And the IC50 (hNav1.7; Table 25, use, […])?
**A.** 70 nM

**Q.** And the IC50 (hNav1.3; Table 25, use, […])?
**A.** 60 nM

**Q.** Which results are given for CC[C@H](C)[C@@H]1NC(=O)[C@@H]2CSSC[C@@H]3NC(=O)[C@H](C(C)C)NC(=O)[C@H](CC(C)C)NC(=O)[C@H](CC(N)=O)NC(=O)[C@@H]4CCCN4C(=O)[C@H](CCCNC(=N)N)NC(=O)[C@H](CSSC[C@H](NC(=O)[C@@H](N)CC(=O)O)C(=O)N[C@@H](CC(C)C)C(=O)NCC(=O)N[C@@H](Cc4ccccc4)C(=O)N[C@@H](CCSC)C(=O)N[C@@H](CCCNC(=N)N)C(=O)N[C@@H](CCCCN)C(=O)N2)NC(=O)[C@H](CSSC[C@@H](C(=O)N[C@@H](CCCCN)C(=O)N[C@@H](Cc2ccc(O)cc2)C(=O)N[C@H](C(=O)N[C@@H](CCCCN)C(N)=O)C(C)C)NC(=O)[C@H](Cc2c[nH]c4ccccc24)NC(=O)[C@H](CCCCN)NC(=O)[C@H](Cc2cnc[nH]2)NC(=O)[C@H]([C@@H](C)O)NC(=O)[C@H](CCCNC(=N)N)NC(=O)[C@H](CO)NC3=O)NC(=O)[C@H](CCCCN)NC(=O)[C@H](CC(=O)O)NC(=O)[C@H](CC(N)=O)NC(=O)[C@H](CC(=O)O)NC(=O)[C@@H]2CCCN2C1=O [compound 59] (H-DCLGFMRKCIPDNDKCCRPNLVCSRTHKWCKYVK-NH2; disulfide 2-17, 9-23, 16-30)?
**A.** IC50 (hNav1.5; IonWorks Quattro, use-dependent, […], read-out: IWQ Use Nav1.5): 18100 nM; IC50 (hNav1.7; use-dependent, […]): 5680 nM; IC50 (hNav1.3; use-dependent, […]): 7740 nM

**Q.** CC[C@H](C)[C@@H]1NC(=O)[C@@H]2CSSC[C@@H]3NC(=O)[C@H](C(C)C)NC(=O)[C@H](CC(C)C)NC(=O)[C@H](CC(N)=O)NC(=O)[C@@H]4CCCN4C(=O)[C@H](CCCNC(=N)N)NC(=O)[C@H](CSSC[C@H](NC(=O)[C@@H](N)CC(=O)O)C(=O)N[C@@H](CC(C)C)C(=O)NCC(=O)N[C@@H](C)C(=O)N[C@@H](CC(C)C)C(=O)N[C@@H](CCCNC(=N)N)C(=O)N[C@@H](CCCCN)C(=O)N2)NC(=O)[C@H](CSSC[C@@H](C(=O)N[C@@H](CCCCN)C(=O)N[C@@H](Cc2ccc(O)cc2)C(=O)N[C@H](C(=O)N[C@@H](Cc2ccccc2)C(=O)O)C(C)C)NC(=O)[C@H](Cc2c[nH]c4ccccc24)NC(=O)[C@H](CCCNC(=N)N)NC(=O)[C@H](Cc2c[nH]cn2)NC(=O)[C@H]([C@@H](C)O)NC(=O)[C@H](CCCNC(=N)N)NC(=O)[C@H](CO)NC3=O)NC(=O)[C@H](CCCCN)NC(=O)[C@H](CC(=O)O)NC(=O)[C@H](CCC(=O)O)NC(=O)[C@H](CC(=O)O)NC(=O)[C@@H]2CCCN2C1=O [compound 862] (H-DCLGALRKCIPDEDKCCRPNLVCSRTHRWCKYVF-OH; disulfide 2-17, 9-23, 16-30) was tested. Which IC50 (hNav1.5; [1]) did it give?
**A.** > 5000 nM

**Q.** What about the IC50 (hNav1.7; use-dependent block, hNav1.7) of the same compound?
**A.** > 5000 nM

**Q.** What about the IC50 (hNav1.3; use-dependent block, hNav1.3) of the same compound?
**A.** > 5000 nM

**Q.** How did the IC50 (hNav1.5; [1]) turn out when CC[C@H](C)[C@@H]1NC(=O)[C@@H]2CSSC[C@@H]3NC(=O)[C@H](C(C)C)NC(=O)[C@H](CC(C)C)NC(=O)[C@H](CC(N)=O)NC(=O)[C@@H]4CCCN4C(=O)[C@H](CCCNC(=N)N)NC(=O)[C@H](CSSC[C@H](NC(=O)[C@@H](N)CC(=O)O)C(=O)N[C@@H](CC(C)C)C(=O)NCC(=O)N[C@@H](Cc4ccccc4)C(=O)N[C@@H](CCSC)C(=O)N[C@@H](CCCCN)C(=O)N[C@@H](CCCCN)C(=O)N2)NC(=O)[C@H](CSSC[C@@H](C(=O)N[C@@H](CCCCN)C(=O)N[C@@H](Cc2ccc(O)cc2)C(=O)N[C@H](C(=O)N[C@@H](Cc2ccccc2)C(N)=O)C(C)C)NC(=O)[C@H](Cc2c[nH]c4ccccc24)NC(=O)[C@H](CCCCN)NC(=O)[C@H](Cc2c[nH]cn2)NC(=O)[C@H]([C@@H](C)O)NC(=O)[C@H](CCCNC(=N)N)NC(=O)[C@H](CO)NC3=O)NC(=O)[C@H](CCCCN)NC(=O)[C@H](CC(=O)O)NC(=O)[C@H](CC(N)=O)NC(=O)[C@H](CC(=O)O)NC(=O)[C@@H]2CCCN2C1=O [[Lys7]GpTx-1(1-34)] (H-DCLGFMKKCIPDNDKCCRPNLVCSRTHKWCKYVF-NH2; disulfide 2-17, 9-23, 16-30) was run?
**A.** 23300 nM

**Q.** What about the IC50 (hNav1.7; use-dependent block, hNav1.7) of the same compound?
**A.** 530 nM

**Q.** And the IC50 (hNav1.3; use-dependent block, hNav1.3)?
**A.** 470 nM

**Q.** Which IC50 (hNav1.5; IWQ Use Nav1.5) does the source give for CC[C@H](C)[C@@H]1NC(=O)[C@@H]2CSSC[C@@H]3NC(=O)[C@H](C(C)C)NC(=O)[C@H](CC(C)C)NC(=O)[C@H](CC(N)=O)NC(=O)[C@@H]4CCCN4C(=O)[C@H](CCCNC(=N)N)NC(=O)[C@H](CSSC[C@H](NC(=O)[C@@H](N)CC(=O)O)C(=O)N[C@@H](CC(C)C)C(=O)NCC(=O)N[C@@H](C4CCCC4)C(=O)N[C@@H](CCSC)C(=O)N[C@@H](CCCNC(=N)N)C(=O)N[C@@H](CCCCN)C(=O)N2)NC(=O)[C@H](CSSC[C@@H](C(=O)N[C@@H](CCCCN)C(=O)N[C@@H](Cc2ccc(O)cc2)C(=O)N[C@H](C(=O)N[C@@H](Cc2ccccc2)C(N)=O)C(C)C)NC(=O)[C@H](Cc2c[nH]c4ccccc24)NC(=O)[C@H](CCCCN)NC(=O)[C@H](Cc2cnc[nH]2)NC(=O)[C@H]([C@@H](C)O)NC(=O)[C@H](CCCNC(=N)N)NC(=O)[C@H](CO)NC3=O)NC(=O)[C@H](CCCCN)NC(=O)[C@H](CC(=O)O)NC(=O)[C@H](CC(N)=O)NC(=O)[C@H](CC(=O)O)NC(=O)[C@@H]2CCCN2C1=O [compound 683] here?
**A.** > 5000 nM

**Q.** And the IC50 (hNav1.7; use-dependent protocol, hNav1.7)?
**A.** 230 nM

**Q.** What about the IC50 (hNav1.3; use-dependent protocol, hNav1.3) of the same compound?
**A.** 630 nM

**Q.** For CC[C@H](C)[C@@H]1NC(=O)[C@@H]2CSSC[C@@H]3NC(=O)[C@H](C(C)C)NC(=O)[C@H](CC(C)C)NC(=O)[C@H](CC(N)=O)NC(=O)[C@@H]4CCCN4C(=O)[C@H](CCCNC(=N)N)NC(=O)[C@H](CSSC[C@H](NC(=O)[C@@H](N)CC(=O)O)C(=O)N[C@@H](CC(C)C)C(=O)NCC(=O)N[C@@H](Cc4ccccc4)C(=O)N[C@@H](CCSC)C(=O)N[C@@H](CCCNC(=N)N)C(=O)N[C@@H](CCCCN)C(=O)N2)NC(=O)[C@H](CSSC[C@@H](C(=O)N[C@@H](CCCCN)C(=O)N[C@@H](Cc2ccc(O)cc2)C(=O)N[C@@H](CO)C(=O)N[C@@H](Cc2ccccc2)C(N)=O)NC(=O)[C@H](Cc2c[nH]c4ccccc24)NC(=O)[C@H](CCCCN)NC(=O)[C@H](Cc2c[nH]cn2)NC(=O)[C@H]([C@@H](C)O)NC(=O)[C@H](CCCNC(=N)N)NC(=O)[C@H](CO)NC3=O)NC(=O)[C@H](CCCCN)NC(=O)[C@H](CC(=O)O)NC(=O)[C@H](CC(N)=O)NC(=O)[C@H](CC(=O)O)NC(=O)[C@@H]2CCCN2C1=O [compound 397] (H-DCLGFMRKCIPDNDKCCRPNLVCSRTHKWCKYSF-NH2; disulfide 2-17, 9-23, 16-30), which IC50 (hNav1.5; Table 26, IonWorks Quattro, use, […], read-out: IWQ Use Nav1.5) is on record?
**A.** 6280 nM

**Q.** And the IC50 (hNav1.7; Table 26, use, […])?
**A.** 40 nM

**Q.** What about the IC50 (hNav1.3; Table 26, use, […]) of the same compound?
**A.** 60 nM
